The record followed here is patent publication US11932633B2, “KRas G12C inhibitors” (Mirati Therapeutics, Inc., priority 2018, dated 2024).

pIC50: −log10 of the molar value.

The target in experiment [1] is T1, KRas G12C (Homo sapiens, UniProt P01116, C118S/C51S/C80L/G12C).
T1 construct: GDP-loaded K-Ras (1-169) G12C, C51S, C80L, C118S
The experiment is described as follows: KRas G12C Modification Assay (LCMS detection of covalent adduct). Format: binding. Conditions: 5 μM concentration for 3 hours. As for the experimental part: This Example illustrates that exemplary compounds of the present invention covalently bind to KRas G12C using a LCMS assay to detect a covalent adduct of the exemplary compound and KRAS G12C.
The protein concentration of GDP-loaded K-Ras (1-169) G12C, C51S, C80L, C118S and GTP-loaded K-Ras (1-169) G12C, C51S, C80L, C118S, Q61H was adjusted to 2 μM in K-Ras Assay Buffer (25 mM HEPES, 150 mM NaCl, 5 mM MgCl2, and 10 mM Octyl β-glucopyranoside at pH 7.5). A 10 μL aliquot of each protein solution was transferred to a 384 well microtiter plate. Initial compound stocks were generated at fifty times their desired final assay concentration in DMSO.
Exemplary compounds of formula (I) were diluted 25-fold into K-Ras Assay Buffer to a final of two times their final concentration. A 10 μL aliquot of each diluted compound solution was added to each of the protein solutions in the microtiter plate to initiate reaction. Typical final compound concentrations were 3.0, 5.0 and 25.0 μM. At each time point, the reactions were quenched with 20 μL of a 25 mM acetic acid solution. Usual assay endpoints were 15, 180 and 1440 minutes. Once all reactions were quenched, the plates were heat sealed and the samples were injected into a LC/MS system for data acquisition.
Data collection took place on an Agilent 6520 Q-TOF Accurate Mass Spectrometer. Samples were injected in their liquid phase onto a C-3 reverse phase column to remove assay buffer and prepare the samples for mass spectrometer. The proteins were eluted from the column using an acetonitrile gradient and fed directly into the mass analyzer. Initial raw data analysis took place in Agilent MassHunter software immediately post data acquisition.
Raw data analysis of the intact protein was exclusively a deconvolution of the multiple charge states of each protein in solution using a maximum entropy deconvolution provided in Mass Hunter. To minimize complexity, only the data over limited mass ranges were considered for analysis, with a minimum of one Dalton mass step intervals. The heights of all masses identified during raw data analysis were exported to be further analyzed in Spotfire® data analysis software.
Final data analysis was a multistep process in the Spotfire® data analysis software package. Briefly, each protein mass was calculated as a percent of the total signal of that sample, that percentage was normalized to the percentage of signal of the protein in the absence of reactive compounds. Those normalized signals were reported as normalized percent of control (POC). […] Key: N.D. is not determined.

Experiment [2] concerns the target T2, KRas G12C (Homo sapiens, UniProt P01116, G12C).
T2 construct: NCI-11358 cells (ATCC CRL-5807) express KRas G12C; host or cells: NCI-H358
The experiment can be described thus: Cellular inhibition of KRas G12C measured by Phospho-ERK in NCI-11358 cells. Format: cell-based. Conditions: NCI-11358 cells (ATCC CRL-5807), 3 hours; read-out: Inhibition (IC50, pERK (Thr202/Tyr204) signal normalized with GAPDH). How it is done:
The cellular inhibition of KRAs G12C by exemplary compounds of the present invention was determined by measuring the amount of a downstream marker of KRas activity, phosphorylated ERK (“Phospho-ERK”).
NCI-11358 cells (ATCC CRL-5807) express KRas G12C and were grown in RPMI medium supplemented with 10% fetal bovine serum, penicillin/streptomycin and 10 mM HEPES. Cells were plated in poly-D-Lysine coated 96-well plates at a concentration of 50,000 cells/well and allowed to attach for 8-12 hours. Diluted compounds were then added at a final concentration of 0.5% DMSO. After 3 hours, the medium was removed, 150 μL of 4% formaldehyde was added and the plates were incubated for 20 minutes. The plates were washed with PBS, and permeabilized using 150 μL of ice cold 100% methanol for 10 minutes. Non-specific antibody binding to the plates was blocked using 100 μL Licor Blocking Buffer (Li-Cor Biotechnology, Lincoln NE) for 1 hour at room temperature. Positive control samples and samples lacking cells were parallel processed with test samples as standards.
The amount Phospho-ERK was determined using an antibody specific for the phosphorylated form of ERK and compared to the amount of GAPDH. Primary antibodies used for detection were added as follows: Phospho-ERK (Cell Signaling cs9101) diluted 1:500 and GAPDH (Millipore MAB374) diluted 1:5000 in Licor block+0.05% Tween 20. The plates were incubated for 2 hours at room temperature. The plates were washed with PBS+0.05% Tween 20.
Secondary antibodies used to visualize primary antibodies were added as follows: Anti-rabbit-680 diluted 1:1000 and Anti-mouse-800 diluted 1:1000 in Licor Block+0.05% Tween 20 and incubated for 1 hour at room temperature. The plates were washed with PBS+0.05% Tween 20. A 100 μL aliquot of PBS was added to each well and the plates were read on a LICOR AERIUS plate reader.
The pERK (Thr202/Tyr204) signal was normalized with the GAPDH signal and percent of DMSO control values were calculated. IC50 values were generated using a 4 parameter fit of the dose response curve. Key: “A”: ≤1 μM, “B”>1 μM and N.D.=not determined.

Take `C=CC(=O)N1CC(CN2C(=O)C(CC3CCN(C)CC3)Oc3cc(-c4cc(O)cc5ccccc45)c(Cl)cc32)C1` (stereo not drawn) [Example 20, 4-((1-acryloylazetidin-3-yl)methyl)-6-chloro-7-(3-hydroxynaphthalen-1-yl)-2-((1-methylpiperidin-4-yl)methyl)-2H-benzo[b][1,4]oxazin-3(4H)-one]: the “POC (normalized percent of control, covalent modification of KRas G12C)” value in experiment [1] was 99% of control. For the same molecule, the pIC50 in experiment [2] is at least 6.00.
The matching figures for `C=CC(=O)N1CC(CN2C(=O)COc3cc(-c4cccc5ccccc45)c(Cl)cc32)C1` [Example 21, 4-((1-acryloylazetidin-3-yl)methyl)-6-chloro-7-(naphthalen-1-yl)-2H-benzo[b][1,4]oxazin-3(4H)-one]: 90% of control and under 6.00.
The matching figures for `C=CC(=O)N1CC(CN2C(=O)C(CCCN3CCCC3)Oc3cc(-c4cc(O)cc5ccccc45)c(Cl)cc32)C1` (stereo not drawn) [Example 22, 4-((1-acryloylazetidin-3-yl)methyl)-6-chloro-7-(3-hydroxynaphthalen-1-yl)-2-(3-(pyrrolidin-1-yl)propyl)-2H-benzo[b][1,4]oxazin-3(4H)-one 2,2,2-trifluoroacetate]: 97% of control and at least 6.00.
The corresponding values for `C=CC(=O)N1CC(C(C)N2C(=O)COc3cc(-c4cc(O)cc5ccccc45)c(Cl)cc32)C1` (stereo not drawn) [Example 23, 4-(1-(1-acryloylazetidin-3-yl)ethyl)-6-chloro-7-(3-hydroxynaphthalen-1-yl)-2H-benzo[b][1,4]oxazin-3(4H)-one] are 34% of control and under 6.00.
Consider `C=CC(=O)N1CC(CN2C(=O)C(CN3CCCC3)Oc3cc(-c4cccc5ccccc45)c(Cl)cc32)C1` (stereo not drawn) [Example 24, 4-((1-acryloylazetidin-3-yl)methyl)-6-chloro-7-(naphthalen-1-yl)-2-(pyrrolidin-1-ylmethyl)-2H-benzo[b][1,4]oxazin-3(4H)-one 2,2,2-trifluoroacetate], for which the “POC (normalized percent of control, covalent modification of KRas G12C)” value in experiment [1] is given as 86% of control. Further, the pIC50 in experiment [2] is under 6.00.
The matching figures for `C=CC(=O)N1CC(CN2C(=O)C(CCCN3CCOCC3)Oc3cc(-c4cc(O)cc5ccccc45)c(Cl)cc32)C1` (stereo not drawn) [Example 25, 4-((1-acryloylazetidin-3-yl)methyl)-6-chloro-7-(3-hydroxynaphthalen-1-yl)-2-(3-morpholinopropyl)-2H-benzo[b][1,4]oxazin-3(4H)-one 2,2,2-trifluoroacetate]: 93% of control and at least 6.00.
The matching figures for `C=CC(=O)N1CC(CN2C(=O)[C@H](CCN(C)C)Oc3cc(-c4cc(O)cc5ccccc45)c(Cl)cc32)C1` [Example 26, (S)-4-((1-acryloylazetidin-3-yl)methyl)-6-chloro-2-(2-(dimethylamino)ethyl)-7-(3-hydroxynaphthalen-1-yl)-2H-benzo[b][1,4]oxazin-3(4H)-one]: 90% of control and at least 6.00.
The matching figures for `C=CC(=O)N1CC(CN2C(=O)C(CN(C)C)Oc3cc(-c4cc(O)cc5ccccc45)c(Cl)cc32)C1` (stereo not drawn) [Example 27, 4-((1-acryloylazetidin-3-yl)methyl)-6-chloro-2-((dimethylamino)methyl)-7-(3-hydroxynaphthalen-1-yl)-2H-benzo[b][1,4]oxazin-3(4H)-one]: 94% of control and at least 6.00.
With `C=CC(=O)N1CC(CN2C(=O)C(CN3CC[C@@H](OC)C3)Oc3cc(-c4cc(O)cc5ccccc45)c(Cl)cc32)C1` (stereo partly drawn) [Example 28, 4-((1-acryloylazetidin-3-yl)methyl)-6-chloro-7-(3-hydroxynaphthalen-1-yl)-2-(((R)-3-methoxypyrrolidin-1-yl)methyl)-2H-benzo[b][1,4]oxazin-3(4H)-one], the “POC (normalized percent of control, covalent modification of KRas G12C)” value in experiment [1] is given as 93% of control. Also, the pIC50 in experiment [2] was at least 6.00.
